Assay results published in patent US20040009955A1, “Method of prophylaxis” (priority 2002, published 2004).

Tested on: MT-1 breast cancer cells
Experiment: Symptom free survival of nude rats inoculated with MT-1 breast cancer cells (treatment efficacy against skeletal metastases)
Format: in vivo, nude rats (Han: rnu/rnu Rowett)
Settings: for increase in survival relative to the control: Wilcoxon rank sum test
[1] = Without Aredia, 300 kBq/ka ^223Ra (regimen A)

Procedure: The effect of ^223Ra in prolonging symptom free survival of rate was studied for two treatment regimens [A] comparative and [B] according to the invention.
Treatment regimen [A]: Animals were treated seven days after tumor cell inoculation. At this time animal body weights varied between 80 and 110 grams and animals were randomized in groups so the average weight for a group was about 100 g at the time of treatment. The treatment groups received 11 or 30 kBq of ^223Ra administered by tail vein injection while animals in the control group were injected with an equivalent volume of 5 mM sodium citrate solution.
Treatment regimen [B]: 3-Amino-1-hydroxypropylidene bisphosphonate, di-sodium salt (Aredia™, Novartis AG, Switzerland), was added as a supplemental treatment to ^223Ra. Animals in the treatment groups were treated on day 7 after tumor cell inoculation with 10 or 30 kBq of ^223Ra. The following day, 1.5 mg/kg b.w. of Aredia™, was administered by i.v. injection. Animals in the control group received 5 mM sodium citrate solution on day 7 and 1.5 mg/kg b.w. of Aredia™ on day 8.
Symptom free animals were followed for at least 50 days after the treatment. The significance of treatment response was related to symptom free survival and evaluated using the Wilcoxon rank sum test.

[223Ra] [^223Ra, radium-223]
survival improvement compared to the control group (60 kBq ^223Ra, regimen A): not significant
symptom free survivors (60 kBq ^223Ra, regimen A (1/5)): 20%
symptom free survivors beyond 50 days (100 kBq/kg ^223Ra, regimen A (5/14)): 36%
increase in survival relative to the control (100 kBq/kg ^223Ra, regimen A): significant at the 1% level
increase in survival compared to the control group, groups taken together (100 kBq/kg and 300 kBq/kg ^223Ra groups taken together, regimen A, P <0.05): significant
increase in survival relative to the control (300 kBq/kg ^223Ra, regimen A): significant at the 1% level
Survival beyond 67 day (Without Aredia, 100 kBq/kg ^223Ra (regimen A)): 33%
Mean survival (Without Aredia, 100 kBq/kg ^223Ra i.v. day 7 after tumor cell inoculation (regimen A)): 38 days
Survival beyond 67 day [1]: 0%
Survival range [1]: 27-61
Mean survival (Without Aredia, 300 kBq/ka ^223Ra i.v. day 7 (regimen A)): 38 days
